Tests used:
cyclooxygenase COX-1 = target: T1, cyclooxygenase COX-1 (Homo sapiens, UniProt P23219); experiment: Cyclooxygenase COX-1 inhibition in human platelets, PGE2 EIA (116010); assay type: cell-based; details: screened at 10 μM
T1 construct: host or cells: human platelets
Protocol: In these assays, in addition to the designations set forth above, IG-05 refers to resorcinol and IG-06 refers to orcinol.
To assess COX-1 inhibition, test compound and/or vehicle was incubated with human platelets (5×10^7/well) for 15 minutes at5 37° C. Calcium ionophore A23187 (10 μM) was added to induce the arachidonic acid cascade. After another 15 minutes incubation at 37° C., PGE2 levels in the supernatant were quantiated using the Amersham EIA kit. Compounds were screened at 10 μM.

[1] = system: arachidonic acid-induced aggregation of platelet rich plasma; experiment: Arachidonic acid, platelet aggregation (412510); assay type: cell-based, rabbit; details: for ANT. (antagonist response), arachidonic acid platelet aggregation / AG. (agonist response), arachidonic acid platelet aggregation: 30 μM, platelet rich plasma, rabbit; for AG. (agonist response), arachidonic acid platelet aggregation: relative to 100 μM arachidonic acid
Protocol: (§1) Test compounds referred to above were evaluated for inhibition of platelet aggregation induced by adenosine diphosphate, arachidonic acid, phorbol ester and Platelet Activating Factor (PAF) at […]. The following methods were employed in this analysis, and reference compounds for the respective assays are indicated in Appendix 1:
Venous blood obtained from male or female New Zealand derived albino rabbits weighting 2.5-3 kg was mixed with one-tenth volume of trisodeium citrate (0.13M) and centrifuged at room temperature for 10 min at 220 g. Test substance (30 μM)-induced aggregation of the supernatant platelet rich plasma by 50 percent or more (≧50%) within 5 min, relative to 100 μM arachidonic acid response at 37° C. as measured by an optical aggregometer indicates possible agonist activity.
At a test substance concentration where no significant agonist activity is seen, ability to reduce the arachidonic acid-induced maximum non-reversible aggregation response by 50 percent or more (>50%) was indicative of antagonist activity.

[2] = system: adenosine diphosphate-induced aggregation of platelet rich plasma (ADP receptor); experiment: Adenosine diphosphate, platelet aggregation (404010); assay type: cell-based, rabbit; details: for ANT. (antagonist response), ADP platelet aggregation / AG. (agonist response), ADP platelet aggregation: 30 μM, platelet rich plasma, rabbit; for AG. (agonist response), ADP platelet aggregation: relative to […] ADP
Protocol: as §1
Venous blood obtained from male or female New Zealand derived albino rabbits weighing 2.5-3 kg was mixed with one-tenth volume of trisodium citrate (0.13 M) and centrifuged at room temperature for 10 min at 220 g. Test substance (30 EM)-induced aggregation of the supernatant platelet rich plasma by 50 percent or more (>50%) more relative to 1.2 μM adenosine diphosphate control response at 37° C. as mearsured by an optical aggregometer, indicates possible ADP receptor agonist activity.
At a test substance concentration where no significant agonist activity is seen, ability to reduce the adenosine diphosphate-induced maximum non-reversible aggregation response by 50 percent or more (≧50%) was indicative of ADP receptor antagonist activity.

Cannabinoid CB1 = target: T2, Cannabinoid CB1 (Mus musculus, UniProt P47746); experiment: Cannabinoid CB1 tissue assay, vas deferens (416000); assay type: cell-based
T2 construct: tissue 416000; host or cells: vas deferens

thromboxane A2 synthase = target: T3, thromboxane A2 synthase (Oryctolagus cuniculus, UniProt G1TAZ9); experiment: Thromboxane A2 synthase inhibition, TXB2 radioimmunoassay (194000); assay type: biochemical, rabbit; details: screened at 100 μM
T3 sequence (G1TAZ9 1-530): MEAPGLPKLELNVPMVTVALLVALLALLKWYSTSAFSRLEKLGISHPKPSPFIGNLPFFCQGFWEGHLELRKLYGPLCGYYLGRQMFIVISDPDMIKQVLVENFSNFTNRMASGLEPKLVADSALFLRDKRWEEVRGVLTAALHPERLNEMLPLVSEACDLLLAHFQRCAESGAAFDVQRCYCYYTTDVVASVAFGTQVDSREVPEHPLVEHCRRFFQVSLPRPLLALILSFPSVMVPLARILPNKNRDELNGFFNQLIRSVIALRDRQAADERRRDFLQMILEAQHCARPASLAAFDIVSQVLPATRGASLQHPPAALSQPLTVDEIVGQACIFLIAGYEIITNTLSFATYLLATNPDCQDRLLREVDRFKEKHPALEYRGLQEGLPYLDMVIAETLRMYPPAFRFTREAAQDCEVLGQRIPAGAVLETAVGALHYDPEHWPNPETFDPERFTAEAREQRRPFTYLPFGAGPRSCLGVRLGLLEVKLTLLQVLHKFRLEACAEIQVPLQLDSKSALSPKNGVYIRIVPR
Protocol: Test compounds (IG-1 through IG-11) were evaluated for their ability to inhibit cyclooxygenase COX-1, cyclooxygenase COX-2, and thromboxane synthase. In these assays, in addition to the designations set forth above, IG-05 refers to resorcinol and IG-06 refers to orcinol.
To assess Thromboxane A2 synthase, thromboxane A2 synthase isolated from a microsomal fraction of rabbit platelets by conventional centrifugation was used. The test compound and/or vehicle was incubated with 1:200 dilution of thromboxane A2 synthase and 5 ng prostaglandin G2 as substrate in Tris buffer pH 7.5 for 30 minutes at 37° C. The thromboxane A2 formed is immediately converted to thromboxane B2, which was quantitated by a radioimmunoassay. Compounds are screened at 100 μM.

[3] = system: PMA-induced aggregation of platelet rich plasma (phorbol ester receptor); experiment: Phorbol ester, platelet aggregation (461500); assay type: cell-based, rabbit; details: for ANT. (antagonist response), phorbol ester platelet aggregation / AG. (agonist response), phorbol ester platelet aggregation: 30 μM, platelet rich plasma, rabbit; for AG. (agonist response), phorbol ester platelet aggregation: relative to PMA 0.5 μM
Protocol: as §1
(§2) Venous blood obtained from male or female New Zealand derived albino rabbits weighing 2.5-3 kg is mixed with one-tenth volume of trisodium citrate (0.13 M) and centrifuged at room temperature for 10 min at 220 g. Test substance (30 μM)-induced aggregation of the supernatant platelet rich plasma by 50 percent or more (≧50%) within 5 min, relative to control phorbol myristate acetate (PMA, 0.5 μM) response at 37° C. as measured by an optical aggregometer, indicates possible phorbol ester receptor agonist activity.
At a test substance concentration where no significant agonist activity is seen, ability to reduce the PMA (0.5 μM)-induced maximum non-reversible aggregation response by 50 percent or more (>50%) indicates phorbol ester receptor antagonist activity.

[4] = system: PAF-acether-induced aggregation of platelet rich plasma (PAF receptor); experiment: PAF, platelet aggregation (463010); assay type: cell-based, rabbit; details: for ANT. (antagonist response), PAF platelet aggregation / AG. (agonist response), PAF platelet aggregation: 30 μM, platelet rich plasma, rabbit; for AG. (agonist response), PAF platelet aggregation: relative to 5 nM PAF-acether
Protocol: as §1
as §2, with “temperture” for “temperature”, “Substance” for “substance”, “5 nM platelet activating factor-acether (PAF-acether)” for “phorbol myristate acetate (PMA, 0.5 μM)”, “37[…]” for “37° C.”, “PAF” for “phorbol ester”
At a test substance concentration where no significant agonist activity is seen, ability to reduce the PAF-acether-induced maximum non-reversible aggregation response by 50 percent or more (≧50%) indicates PAF receptor antagonist activity.

T2 sequence (P47746 whole entry): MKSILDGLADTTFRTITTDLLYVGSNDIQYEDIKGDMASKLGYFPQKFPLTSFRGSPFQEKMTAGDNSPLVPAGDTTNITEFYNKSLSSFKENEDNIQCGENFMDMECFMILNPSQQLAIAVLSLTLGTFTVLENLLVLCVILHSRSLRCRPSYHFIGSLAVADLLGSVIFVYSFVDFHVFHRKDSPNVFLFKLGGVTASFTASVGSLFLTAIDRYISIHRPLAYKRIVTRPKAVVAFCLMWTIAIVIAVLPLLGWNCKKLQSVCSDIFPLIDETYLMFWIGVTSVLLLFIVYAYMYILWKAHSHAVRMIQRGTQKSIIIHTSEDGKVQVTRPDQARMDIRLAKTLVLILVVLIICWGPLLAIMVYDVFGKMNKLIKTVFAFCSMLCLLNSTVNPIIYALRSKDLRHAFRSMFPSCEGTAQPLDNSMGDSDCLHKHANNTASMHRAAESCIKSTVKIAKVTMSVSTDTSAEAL
T1 sequence (P23219 24-599): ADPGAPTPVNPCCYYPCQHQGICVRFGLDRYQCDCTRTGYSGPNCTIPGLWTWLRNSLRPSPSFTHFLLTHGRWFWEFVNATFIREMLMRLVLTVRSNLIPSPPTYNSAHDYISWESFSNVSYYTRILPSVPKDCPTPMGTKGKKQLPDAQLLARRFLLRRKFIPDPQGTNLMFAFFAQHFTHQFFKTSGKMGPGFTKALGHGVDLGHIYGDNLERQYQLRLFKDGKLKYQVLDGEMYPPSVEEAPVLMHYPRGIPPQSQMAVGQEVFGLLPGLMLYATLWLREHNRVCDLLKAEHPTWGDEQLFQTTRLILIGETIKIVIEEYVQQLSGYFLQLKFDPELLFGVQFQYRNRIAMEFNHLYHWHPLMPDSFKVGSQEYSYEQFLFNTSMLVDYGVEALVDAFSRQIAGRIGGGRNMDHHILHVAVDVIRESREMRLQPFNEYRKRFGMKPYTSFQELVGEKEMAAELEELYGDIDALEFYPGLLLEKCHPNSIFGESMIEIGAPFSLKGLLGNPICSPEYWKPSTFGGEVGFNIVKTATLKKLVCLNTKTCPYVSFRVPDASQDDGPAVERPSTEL

Cc1cc(O)cc(O)c1 [IG-6, orcinol]
COX-1 inhibition (in words) (cyclooxygenase COX-1): potent inhibitors of COX-1

COc1ccc2c(c1)c(CC(=O)O)c(C)n2C(=O)c1ccc(Cl)cc1 [Indomethacin, reference compound]
Concurrent RESP., reference compound, arachidonic acid platelet aggregation - Antagonist ([1]; 0.3 μM, batch 27731): 100

Nc1nc(Cl)nc2c1ncn2[C@@H]1O[C@H](CO)[C@@H](O)[C@H]1O [2-Chloroadenosine, reference compound]
Concurrent RESP., reference compound, ADP platelet aggregation - Antagonist ([2]; 10 μM, batch 27737): 90

Cc1ccc2c(c1)-c1c(O)cc(C(C)(C)CCCC(C)C)cc1OC2(C)C [IG-11, 3-Norpentyl-3-(1,1,5-trimethylhexyl)cannabinol]
AG. (agonist response), Cannabinoid CB1 (Cannabinoid CB1; 30 μM): 102% | Thromboxane synthase inhibition (in words) (thromboxane A2 synthase): significantly inhibit thromboxane synthase | ANT. (antagonist response), arachidonic acid platelet aggregation [1]: 0% | AG. (agonist response), arachidonic acid platelet aggregation [1]: 0% | ANT. (antagonist response), phorbol ester platelet aggregation [3]: 8% | AG. (agonist response), phorbol ester platelet aggregation [3]: 0% | ANT. (antagonist response), PAF platelet aggregation [4]: 11% | AG. (agonist response), PAF platelet aggregation [4]: 0% | ANT. (antagonist response), ADP platelet aggregation [2]: 0% | AG. (agonist response), ADP platelet aggregation [2]: 0%

CCCCCCCCCCCCCC(=O)O[C@@H]1[C@@H](C)[C@@]2(O)[C@@H](C=C(CO)C[C@]3(O)C(=O)C(C)=C[C@@H]23)[C@@H]2C(C)(C)[C@]12OC(C)=O [PMA, phorbol myristate acetate, reference compound]
Concurrent RESP., reference compound, phorbol ester platelet aggregation - Agonist ([3]; 0.5 μM, batch 27699): 100

CCCCC/C=C\C/C=C\C/C=C\C/C=C\CCCC(=O)NCCO [Anandamide, reference compound]
Concurrent RESP., reference compound, Cannabinoid CB1 - Agonist (Cannabinoid CB1; 0.1 μM, batch 27098): 100

COc1cc(C(C)(C)CCCC(C)C)cc(OC)c1OC [IG-7, 1-(1,1,5-Trimethylhexyl)-3,4,5-trimethoxybenzene]
AG. (agonist response), Cannabinoid CB1 (Cannabinoid CB1; 30 μM): −106% | ANT. (antagonist response), Cannabinoid CB1 (Cannabinoid CB1; 30 μM): 100% | ANT. (antagonist response), arachidonic acid platelet aggregation [1]: 0% | AG. (agonist response), arachidonic acid platelet aggregation [1]: 0% | ANT. (antagonist response), phorbol ester platelet aggregation [3]: 9% | AG. (agonist response), phorbol ester platelet aggregation [3]: 0% | ANT. (antagonist response), PAF platelet aggregation [4]: 4% | AG. (agonist response), PAF platelet aggregation [4]: 0% | ANT. (antagonist response), ADP platelet aggregation [2]: 11% | AG. (agonist response), ADP platelet aggregation [2]: 0%

Cc1nnc2n1-c1sc(CCC(=O)N3CCOCC3)cc1C(c1ccccc1Cl)=NC2 [WEB-2086, reference compound]
Concurrent RESP., reference compound, PAF platelet aggregation - Antagonist ([4]; 0.3 μM, batch 27927): 97

COc1cc(C(C)(C)CCCC(C)C)cc(OC)c1O [IG-2, 4-(1,1,5-trimethylhexyl)-2,6-dimethoxyphenol]
COX-1 inhibition (in words) (cyclooxygenase COX-1): potent inhibitors of COX-1

CCCCCCCCCCCCCCCCOC[C@H](COP(=O)([O-])OCC[N+](C)(C)C)OC(C)=O [PAF, platelet activating factor-acether, reference compound]
Concurrent RESP., reference compound, PAF platelet aggregation - Agonist ([4]; 5 nM, batch 27927): 100

CC(C)CCCC(C)(C)c1cc(O)cc(O)c1
melting point: 95 to 96 °C

CN[C@@H]1C[C@H]2O[C@@](C)([C@@H]1OC)n1c3ccccc3c3c4c(c5c6ccccc6n2c5c31)C(=O)NC4 [Staurosporine, reference compound]
Concurrent RESP., reference compound, phorbol ester platelet aggregation - Antagonist ([3]; 3 μM, batch 27699): 100

CCCCC/C=C\C/C=C\C/C=C\C/C=C\CCCC(=O)O [Arachidonic Acid, reference compound]
Concurrent RESP., reference compound, arachidonic acid platelet aggregation - Agonist ([1]; 100 μM, batch 27731): 100

CC1=CCC2C(C1)c1c(O)cc(C(C)(C)CCCC(C)C)cc1OC2(C)C (stereo not drawn) [IG-9, 3-Norpentyl-3-(1,1,5-trimethylhexyl)-Δ 8-tetrahydrocannabinol]
ANT. (antagonist response), arachidonic acid platelet aggregation [1]: 0% | AG. (agonist response), arachidonic acid platelet aggregation [1]: 0% | ANT. (antagonist response), phorbol ester platelet aggregation [3]: 4% | AG. (agonist response), phorbol ester platelet aggregation [3]: 0% | ANT. (antagonist response), PAF platelet aggregation [4]: 4% | AG. (agonist response), PAF platelet aggregation [4]: 0% | ANT. (antagonist response), ADP platelet aggregation [2]: 7% | AG. (agonist response), ADP platelet aggregation [2]: 0%
